Patent US20140271767A1, “BIOCOMPATIBLE HYDROGEL POLYMER MATRIX FOR DELIVERY OF CELLS” (Medicus Biosciences LLC, priority 2013, published 2014)

Assay: Drug elution from polymer (UV-Vis)
Assay type: physicochemical
Details: within the first three days; Nolvasan polymer, 2% chlorhexidine dose (50 mg), 2 mL PBS per 1 g polymer, 37° C.
Protocol: A Thermo Scientific GENESYS 10S UV-Vis spectrophotometer was used to quantify the release of various drugs from several polymers. First, the reference drug or drug solution was dissolved in an appropriate solvent. Typically, phosphate buffered saline (PBS), ethanol or dimethylsulfoxide (DMSO) were used as the solvent. Next, the optimal absorption peak for identifying and quantifying the drug was determined by performing a scan of the drug solution between 200 and 1000 nm. With the absorption peak selected, a reference curve was established by measuring the peak absorbance for various concentrations of the drug. […]
Elution samples were collected daily by decanting the PBS solution from the polymer. The volume of sample collected was recorded. […] The elution sample was analyzed by first diluting the sample in the appropriate solvent using analytical pipettes such that the measured absorbance was in the range determined by the reference curve. The dilution factor was recorded. The drug concentration was calculated from the measured absorbance via the reference curve and the dilution factor. The drug amount was calculated by multiplying the drug concentration with the sample volume. The percent elution for that day was calculated by dividing the drug amount by the total amount of drug administered. […]

With [H]/N=C(\N/C(=N/[H])NCCCCCCNC(=N)NC(=N)Nc1ccc(Cl)cc1)Nc1ccc(Cl)cc1 [chlorhexidine] the “chlorhexidine released from polymer” value was “Almost half”.
